Like-named read-outs stand apart in the source and are kept apart here.
Experiments:
HMEC1 = test: Inhibition of cells growth by colorimetric assay (SRB); conditions: for GI50: Homo sapiens, HMEC-1, 48 h
Procedure, shortened: (§1)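 Colorimetric SRB read (490 nm) on triplicate wells after 48 h at 37 °C, 5% CO2. Dose range 10 to 10^−8 μg/ml; 5×10^3 cells/well pre-attached 18 h.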

[1] = as above; conditions: human
Procedure, shortened: as §1

A-549 = test: cells; conditions: Homo sapiens, A549, 48 h
Procedure, shortened: as §1

HT-29 = test: cells; conditions: Homo sapiens, HT-29, 48 h
Procedure, shortened: as §1

IGROV-ET = test: Inhibition of cells growth by colorimetric assay (SRB); conditions: Homo sapiens, 48 h; for GI50: read-out: IGROV-ET GI50; for CC50: read-out: IGROV-ET LC50; for IC (TGI): read-out: IGROV-ET TGI
Procedure, shortened: as §1

IGROV-1 = test: as above; conditions: Homo sapiens, IGROV-1, 48 h; for GI50: read-out: IGROV GI50; for CC50: read-out: IGROV LC50; for IC (TGI): read-out: IGROV TGI
Procedure, shortened: as §1

LoVo-Dox = test: as above; conditions: Homo sapiens, 48 h; for GI50: read-out: LOVO-DOX GI50; for IC (TGI): read-out: LOVO-DOX TGI
Procedure, shortened: as §1

DU-145 = test: as above; conditions: Homo sapiens, DU-145, 48 h; for GI50: read-out: DU145 GI50; for CC50: read-out: DU145 LC50; for IC (TGI): read-out: DU145 TGI
Procedure, shortened: as §1

SK-OV-3 = test: as above; conditions: for GI50: read-out: SK-OV3 GI50; for SK-OV3 TGI: SRB, 48 hours exposure
Procedure, shortened: as §1

PANC-1 = test: as above; conditions: Homo sapiens, PANC-1, 48 h; for GI50: read-out: PANC-1 GI50; for CC50: read-out: PANC-1 LC50; for IC (TGI): read-out: PANC-1 TGI
Procedure, shortened: as §1

SK-MEL-28 = test: as above; conditions: Homo sapiens, SK-MEL-28, 48 h; for GI50: read-out: MEL-28 GI50; for CC50: read-out: MEL-28 LC50; for IC (TGI): read-out: MEL-28 TGI
Procedure, shortened: as §1

K-562 = test: as above; conditions: Homo sapiens, K562, 48 h; for GI50: read-out: K562 GI50; for CC50: read-out: K562 LC50; for IC (TGI): read-out: K562 TGI
Procedure, shortened: as §1

LNCaP = test: as above; conditions: Homo sapiens, LNCaP, 48 h; for GI50: read-out: LNCAP GI50; for CC50: read-out: LNCAP LC50; for IC (TGI): read-out: LNCAP TGI
Procedure, shortened: as §1

LoVo = test: cells; conditions: Homo sapiens, LoVo, 48 h; for GI50: read-out: LOVO GI50; for CC50: read-out: LOVO LC50; for IC (TGI): read-out: LOVO TGI
Procedure, shortened: as §1

SK-BR-3 = test: Inhibition of cells growth by colorimetric assay (SRB); conditions: Homo sapiens, SK-BR-3, 48 h
Procedure, shortened: as §1

[2] = H-MEC-1, SRB, 48 hours exposure

For C=CCN1[C@@H]2c3c(cc(C)c(OC)c3O)C[C@H]1[C@H](C#N)N1C2[C@@H]2SCC(=O)C(=O)OC[C@H]1c1c3c(c(C)c(OC(C)=O)c12)OCO3 (stereo partly drawn) [compound 13], the “TGI H-MEC-1” value (HMEC1; [2]) was 1.54E−05 Molar, the GI50 (HMEC1; read-out: GI50 H-MEC-1) was 4.74 µM and the CC50 at 48 h [1] was 15.4 µM. For the same molecule, the GI50 (A-549; read-out: GI50 A549) was 3.94 µM, the CC50 (A-549; read-out: LC50 A549) was 13.7 µM and the IC (TGI) (A-549; read-out: TGI A549) was 7.36 µM. The GI50 (HT-29; read-out: GI50 HT29) was 6.02 µM, the CC50 (HT-29; read-out: LC50 HT29) was 15.4 µM and the IC (TGI) (HT-29; read-out: TGI HT29) was 15.4 µM.
For C=CCN1[C@@H]2c3c(cc(C)c(OC)c3OCOCCOC)C[C@H]1[C@H](C#N)N1C2CC2(O)C(=O)C(C)=C3OCOC3=C2[C@@H]1COC(=O)[C@H](CSCC1c2ccccc2-c2ccccc21)NC(=O)OC(C)(C)C (stereo partly drawn) [compound 10], the “TGI H-MEC-1” value (HMEC1; [2]) was 4.06E−06 Molar, the GI50 (HMEC1; read-out: GI50 H-MEC-1) was 2.15 µM and the CC50 at 48 h [1] was 7.63 µM. For the same molecule, the GI50 (A-549; read-out: GI50 A549) was 1010 µM, the CC50 (A-549; read-out: LC50 A549) was 1010 µM and the IC (TGI) (A-549; read-out: TGI A549) was 1010 µM. For the same molecule, the GI50 (HT-29; read-out: GI50 HT29) was 1010 µM, the CC50 (HT-29; read-out: LC50 HT29) was 1010 µM and the IC (TGI) (HT-29; read-out: TGI HT29) was 1010 µM.
Work on COc1cc2c(cc1O)CCN[C@]21CS[C@@H]2c3c(OC(C)=O)c(C)c4c(c3[C@H](CNC1=O)N1C2[C@H]2c3c(cc(C)c(OC)c3O)CC([C@@H]1O)N2C)OCO4 (stereo partly drawn) [compound 77] yielded a GI50 (IGROV-ET) of 0.652 µM, a CC50 (IGROV-ET) of 13.1 µM and an IC (TGI) (IGROV-ET) of 1.7 µM. For the same molecule, the GI50 (IGROV-1) was 0.058 µM, the CC50 (IGROV-1) was 6.32 µM and the IC (TGI) (IGROV-1) was 0.272 µM. The GI50 (LoVo-Dox) was 0.929 µM, the CC50 (LoVo-Dox; read-out: LOVO-DOX LC50) was 13.1 µM and the IC (TGI) (LoVo-Dox) was 5.66 µM. For the same molecule, the GI50 (DU-145) was 0.301 µM, the CC50 (DU-145) was 13.1 µM and the IC (TGI) (DU-145) was 1.16 µM. The GI50 (SK-OV-3; Homo sapiens, SK-OV-3, 48 h) was 0.439 µM, the CC50 (SK-OV-3; Homo sapiens, SK-OV-3, 48 h, read-out: SK-OV3 LC50) was 13.1 µM and the “SK-OV3 TGI” value (SK-OV-3) was 4.86E−06 Molar. It also gave a GI50 (PANC-1) of 0.418 µM, a CC50 (PANC-1) of 13.1 µM and an IC (TGI) (PANC-1) of 2.72 µM. The GI50 (SK-MEL-28) was 0.0631 µM, the CC50 (SK-MEL-28) was 0.756 µM and the IC (TGI) (SK-MEL-28) was 0.175 µM. It also gave a GI50 (K-562) of 0.0166 µM, a CC50 (K-562) of 13.1 µM and an IC (TGI) (K-562) of 0.101 µM. It also gave a GI50 (LNCaP) of 0.0435 µM, a CC50 (LNCaP) of 0.118 µM and an IC (TGI) (LNCaP) of 0.071 µM. It also gave a GI50 (LoVo) of 0.241 µM, a CC50 (LoVo) of 13.1 µM and an IC (TGI) (LoVo) of 0.917 µM. It also gave a GI50 (A-549; read-out: A549 GI50) of 0.301 µM, a CC50 (A-549; read-out: A549 LC50) of 3.65 µM and an IC (TGI) (A-549; read-out: A549 TGI) of 0.728 µM. The GI50 (HT-29; read-out: HT29 GI50) was 0.189 µM, the CC50 (HT-29; read-out: HT29 LC50) was 13.1 µM and the IC (TGI) (HT-29; read-out: HT29 TGI) was 0.908 µM.
With COc1cc2c(cc1O)CCN[C@]21CS[C@@H]2c3c(OC(C)=O)c(C)c4c(c3[C@H](COC1=O)N1[C@@H]2[C@H]2c3c(cc(C)c(OC)c3O)C[C@@H]([C@@H]1O)N2C)OCO4 [Et-743, ecteinascidin 743, reference compound] the “H-MEC-1 TGI” value (HMEC1; [2]) was 6.88E−08 Molar, the GI50 (HMEC1; read-out: H-MEC-1 GI50) was 0.00903 µM and the GI50 (IGROV-ET) was 0.00429 µM. The CC50 (IGROV-ET) was 0.0186 µM, the IC (TGI) (IGROV-ET) was 0.00786 µM and the GI50 (SK-BR-3; read-out: SK-BR3 GI50) was 0.000479 µM. For the same molecule, the CC50 (SK-BR-3; read-out: SK-BR3 LC50) was 0.00857 µM, the IC (TGI) (SK-BR-3; read-out: SK-BR3 TGI) was 0.00172 µM and the GI50 (IGROV-1) was 0.000579 µM. It also gave a CC50 (IGROV-1) of 0.0103 µM, an IC (TGI) (IGROV-1) of 0.0026 µM and a GI50 (LoVo-Dox) of 0.0295 µM. For the same molecule, the IC (TGI) (LoVo-Dox) was 0.11 µM, the GI50 (DU-145) was 0.000618 µM and the CC50 (DU-145) was 4.33 µM. The IC (TGI) (DU-145) was 0.00129 µM, the GI50 (SK-OV-3; Homo sapiens, SK-OV-3, 48 h) was 0.00131 µM and the “SK-OV3 TGI” value (SK-OV-3) was 1.30E−08 Molar. For the same molecule, the GI50 (PANC-1) was 0.00159 µM, the CC50 (PANC-1) was 0.0399 µM and the IC (TGI) (PANC-1) was 0.00634 µM. It also gave a GI50 (SK-MEL-28) of 0.000742 µM, a CC50 (SK-MEL-28) of 0.0112 µM and an IC (TGI) (SK-MEL-28) of 0.00306 µM. It also gave a GI50 (K-562) of 0.000347 µM, a CC50 (K-562) of 0.00106 µM and an IC (TGI) (K-562) of 0.000605 µM. It also gave a GI50 (LNCaP) of 0.00023 µM, a CC50 (LNCaP) of 0.00122 µM and an IC (TGI) (LNCaP) of 0.000529 µM. It also gave a GI50 (LoVo) of 0.00156 µM, a CC50 (LoVo) of 0.0114 µM and an IC (TGI) (LoVo) of 0.00423 µM. For the same molecule, the GI50 (A-549; read-out: A549 GI50) was 0.00252 µM, the CC50 (A-549; read-out: A549 LC50) was 0.0121 µM and the IC (TGI) (A-549; read-out: A549 TGI) was 0.00551 µM. The GI50 (HT-29; read-out: HT29 GI50) was 0.00341 µM, the CC50 (HT-29; read-out: HT29 LC50) was 13.1 µM and the IC (TGI) (HT-29; read-out: HT29 TGI) was 0.0111 µM.

— patent US7767659B2, “Synthesis of naturally occurring ecteinascidins and related compounds” (Pharma Mar, S.A., priority 2002, dated 2010)
